Experimental data as given in patent US6603046B1, “Bis-aromatic a,β-unsaturated ketones” (Lica Pharmaceuticals A/S, priority 1992, dated 2003).
≈ marks a conversion by molar mass, not a printed value. Where “and” joins values, the source holds several entries; their conditions need not be identical. Identical values can stand only once.

Legend:
[1] = test system: Non-haemolytic streptacocci; experiment: MIC, macrodilution (Example 17); assay type: cell-based, Non-haemolytic streptococci; details: 1 strain
Streptococcus pneumonia = experiment: MIC, macrodilution (Example 17); assay type: cell-based; details: Streptococcus pneumoniae; 1 strain
P. yoelii strain YM = P. yoelii strain YM infection in mice, parasitemia and mortality (Example 16); assay type: in vivo, BALB/c mice; details: for % parasitemia, Mean: orally 100 mg/kg/dose 3 and 24 h after infection
[2] = D + 2, 10 mg per kg twice daily days +1 to +4
[3] = D + 3, 10 mg per kg twice daily days +1 to +4
[4] = D + 4, 10 mg per kg twice daily days +1 to +4
[5] = D + 5, 10 mg per kg twice daily days +1 to +4
[6] = D + 6, 10 mg per kg twice daily days +1 to +4
[7] = D + 7, 10 mg per kg twice daily days +1 to +4
[8] = D + 8, 10 mg per kg twice daily days +1 to +4
[9] = D + 9, 10 mg per kg twice daily days +1 to +4
[10] = D + 11, 10 mg per kg twice daily days +1 to +4
[11] = D + 12, 10 mg per kg twice daily days +1 to +4
[12] = D + 12, i.p. 10 mg/kg twice daily D-1, D0

Structure (SMILES): C=CC(C)(C)c1cc(/C=C/C(=O)c2ccc(O)cc2)c(OC)cc1O [Licochalcone A, licochalcone A]
- MIC [1]: 4 µg/mL (≈ 11.8 µM)
- MIC (Streptococcus pneumonia): 4 µg/mL (≈ 11.8 µM)
- Parasitemia, mean (P. yoelii strain YM; [2]): 0.1%
- Parasitemia, single mice (P. yoelii strain YM; [2]): 0.1% and 0.01%
- Parasitemia, mean (P. yoelii strain YM; [3]): 0.2%
- Parasitemia, single mice (P. yoelii strain YM; [3]): 0.00% and 0.5% and 0.01%
- Parasitemia, mean (P. yoelii strain YM; [4]): 0.4%
- Parasitemia, single mice (P. yoelii strain YM; [4]): 0.00% and 1.2%
- Parasitemia, single mice (P. yoelii strain YM; D + 4, 10 mg/kg/day in 2 injections, days +1 to +6, 10 mg/kg/day): 1.5% and 4.0%
- Parasitemia, single mice (P. yoelii strain YM; D + 4, 20 mg/kg/day in 2 injections, days +1 to +6, 20 mg/kg/day): 0.01% and 0.0%
- Parasitemia, single mice (P. yoelii strain YM; D + 4, 40 mg/kg/day in 2 injections, days +1 to +6, 40 mg/kg/day): 0.1% and 0.5%
- % parasitemia (mean ± SEM) (P. yoelii strain YM; D + 4, i.p. 5 mg/kg/day twice daily, 3 h after infection and D + 1 to D + 3): 1.6 ± 0.6%
- % parasitemia (mean ± SEM) (P. yoelii strain YM; D + 4, i.p. 10 mg/kg four times daily D + 4 to D + 7): 14.2 ± 3.8%
- % parasitemia (mean ± SEM) (P. yoelii strain YM; D + 4, i.p. 10 mg/kg twice daily D-1, D0): 1.2 ± 1.1%
- % parasitemia (mean ± SEM) (P. yoelii strain YM; D + 4, i.p. 10 mg/kg/day twice daily, 3 h after infection and D + 1 to D + 3): 1.1 ± 1.0%
- % parasitemia (mean ± SEM) (P. yoelii strain YM; D + 4, i.p. 15 mg/kg/day twice daily, 3 h after infection and D + 1 to D + 3): 2.0 ± 2.0%
- % parasitemia, Mean (P. yoelii strain YM; D + 4): 1.0%
- Parasitemia, mean (P. yoelii strain YM; [5]): 0.7%
- Parasitemia, single mice (P. yoelii strain YM; [5]): 0.1% and 1.5% and 0.00%
- Parasitemia, single mice (P. yoelii strain YM; D + 5, 10 mg/kg/day in 2 injections, days +1 to +6, 10 mg/kg/day): 1.5% and 3.0%
- Parasitemia, single mice (P. yoelii strain YM; D + 5, 20 mg/kg/day in 2 injections, days +1 to +6): 0.0%
- Parasitemia, single mice (P. yoelii strain YM; D + 5, 40 mg/kg/day in 2 injections, days +1 to +6, 40 mg/kg/day): 0.5% and 1.0%
- Parasitemia, mean (P. yoelii strain YM; [6]): 2.2%
- Parasitemia, single mice (P. yoelii strain YM; [6]): 1.0% and 4.0% and 1.5%
- Parasitemia, single mice (P. yoelii strain YM; D + 6, 10 mg/kg/day in 2 injections, days +1 to +6, 10 mg/kg/day): 2.0% and 2.5%
- % parasitemia (mean ± SEM) (P. yoelii strain YM; D + 6, 10 mg/kg/day twice daily, 3 h after infection, D + 1 to D + 5): 0.1 ± 0.1%
- % parasitemia (mean ± SEM) (P. yoelii strain YM; D + 6, 15 mg/kg/day twice daily, 3 h after infection, D + 1 to D + 5): 0%
- Parasitemia, single mice (P. yoelii strain YM; D + 6, 20 mg/kg/day in 2 injections, days +1 to +6): 0.0%
- Parasitemia, single mice (P. yoelii strain YM; D + 6, 40 mg/kg/day in 2 injections, days +1 to +6, 40 mg/kg/day): 1.0% and 1.5%
- % parasitemia (mean ± SEM) (P. yoelii strain YM; D + 6, i.p. 5 mg/kg/day twice daily, 3 h after infection and D + 1 to D + 3): 13.8 ± 4.4%
- % parasitemia (mean ± SEM) (P. yoelii strain YM; D + 6, i.p. 10 mg/kg four times daily D + 4 to D + 7): 6.6 ± 1.5%
- % parasitemia (mean ± SEM) (P. yoelii strain YM; D + 6, i.p. 10 mg/kg twice daily D-1, D0): 9.7 ± 0.7%
- % parasitemia (mean ± SEM) (P. yoelii strain YM; D + 6, i.p. 10 mg/kg/day twice daily, 3 h after infection and D + 1 to D + 3): 14.2 ± 4.6%
- % parasitemia (mean ± SEM) (P. yoelii strain YM; D + 6, i.p. 15 mg/kg/day twice daily, 3 h after infection and D + 1 to D + 3): 10.4 ± 7.4%
- Parasitemia, mean (P. yoelii strain YM; [7]): 3.0%
- Parasitemia, single mice (P. yoelii strain YM; [7]): 2.0% and 4.0% and 3.0%
- Parasitemia, single mice (P. yoelii strain YM; D + 7, 10 mg/kg/day in 2 injections, days +1 to +6, 10 mg/kg/day): 8.0% and 10.0%
- Parasitemia, single mice (P. yoelii strain YM; D + 7, 20 mg/kg/day in 2 injections, days +1 to +6, 20 mg/kg/day): 0.01% and 0.05%
- Parasitemia, single mice (P. yoelii strain YM; D + 7, 40 mg/kg/day in 2 injections, days +1 to +6, 40 mg/kg/day): 4.5% and 5.8%
- % parasitemia, Mean (P. yoelii strain YM; D + 7): 9.7%
- Parasitemia, mean (P. yoelii strain YM; [8]): 6.7%
- Parasitemia, single mice (P. yoelii strain YM; [8]): 4.0% and 8.0%
- Parasitemia, single mice (P. yoelii strain YM; D + 8, 10 mg/kg/day in 2 injections, days +1 to +6, 10 mg/kg/day): 18.0% and 20.0%
- % parasitemia (mean ± SEM) (P. yoelii strain YM; D + 8, 10 mg/kg/day twice daily, 3 h after infection, D + 1 to D + 5): 0.7 ± 0.4%
- % parasitemia (mean ± SEM) (P. yoelii strain YM; D + 8, 15 mg/kg/day twice daily, 3 h after infection, D + 1 to D + 5): 0%
- Parasitemia, single mice (P. yoelii strain YM; D + 8, 20 mg/kg/day in 2 injections, days +1 to +6, 20 mg/kg/day): 1.0% and 1.5%
- Parasitemia, single mice (P. yoelii strain YM; D + 8, 40 mg/kg/day in 2 injections, days +1 to +6, 40 mg/kg/day): 12.0% and 15.0%
- % parasitemia (mean ± SEM) (P. yoelii strain YM; D + 8, i.p. 5 mg/kg/day twice daily, 3 h after infection and D + 1 to D + 3): 36.6 ± 5.7%
- % parasitemia (mean ± SEM) (P. yoelii strain YM; D + 8, i.p. 10 mg/kg four times daily D + 4 to D + 7): 17 ± 6.2%
- % parasitemia (mean ± SEM) (P. yoelii strain YM; D + 8, i.p. 10 mg/kg twice daily D-1, D0): 27.8 ± 16.1%
- % parasitemia (mean ± SEM) (P. yoelii strain YM; D + 8, i.p. 10 mg/kg/day twice daily, 3 h after infection and D + 1 to D + 3): 30.2 ± 6.4%
- % parasitemia (mean ± SEM) (P. yoelii strain YM; D + 8, i.p. 15 mg/kg/day twice daily, 3 h after infection and D + 1 to D + 3): 22 ± 11.6%
- Parasitemia, mean (P. yoelii strain YM; [9]): 23.0%
- Parasitemia, single mice (P. yoelii strain YM; [9]): 20.0% and 18.0% and 31.0%
- Parasitemia, mean (P. yoelii strain YM; D + 10, 10 mg per kg twice daily days +1 to +4): 25.5%
- Parasitemia, single mice (P. yoelii strain YM; D + 10, 10 mg/kg/day in 2 injections, days +1 to +6, 10 mg/kg/day): 39.0% and 42.0%
- % parasitemia (mean ± SEM) (P. yoelii strain YM; D + 10, 10 mg/kg/day twice daily, 3 h after infection, D + 1 to D + 5): 6.0 ± 3.8%
- % parasitemia (mean ± SEM) (P. yoelii strain YM; D + 10, 15 mg/kg/day twice daily, 3 h after infection, D + 1 to D + 5): 0%
- Parasitemia, single mice (P. yoelii strain YM; D + 10, 20 mg/kg/day in 2 injections, days +1 to +6, 20 mg/kg/day): 5.0% and 8.0%
- Parasitemia, single mice (P. yoelii strain YM; D + 10, 40 mg/kg/day in 2 injections, days +1 to +6, 40 mg/kg/day): 32.0% and 38.0%
- mortality (no. of dead mice/total no. of tested mice) (P. yoelii strain YM; D + 10, i.p. 5 mg/kg/day twice daily to D + 3): (2/5)
- % parasitemia (mean ± SEM) (P. yoelii strain YM; D + 10, i.p. 5 mg/kg/day twice daily, 3 h after infection and D + 1 to D + 3): 64 ± 5.0%
- % parasitemia (mean ± SEM) (P. yoelii strain YM; D + 10, i.p. 10 mg/kg four times daily D + 4 to D + 7): 27.6 ± 12.1%
- % parasitemia (mean ± SEM) (P. yoelii strain YM; D + 10, i.p. 10 mg/kg twice daily D-1, D0): 47.4 ± 27.7%
- mortality (no. of dead mice/total no. of tested mice) (P. yoelii strain YM; D + 10, i.p. 10 mg/kg/day twice daily to D + 3): (1/5)
- % parasitemia (mean ± SEM) (P. yoelii strain YM; D + 10, i.p. 10 mg/kg/day twice daily, 3 h after infection and D + 1 to D + 3): 48 ± 5.4%
- mortality (no. of dead mice/total no. of tested mice) (P. yoelii strain YM; D + 10, i.p. 15 mg/kg/day twice daily to D + 3): (1/5)
- % parasitemia (mean ± SEM) (P. yoelii strain YM; D + 10, i.p. 15 mg/kg/day twice daily, 3 h after infection and D + 1 to D + 3): 22 ± 11.6%
- % parasitemia, Mean (P. yoelii strain YM; D + 10): 43%
- Parasitemia, mean (P. yoelii strain YM; [10]): 37.0%
- Parasitemia, single mice (P. yoelii strain YM; [10]): 33.0% and 41.0%
- Parasitemia, single mice (P. yoelii strain YM; D + 11, 40 mg/kg/day in 2 injections, days +1 to +6, 40 mg/kg/day): 51.0%
- Parasitemia, mean (P. yoelii strain YM; [11]): 74.0%
- Parasitemia, single mice (P. yoelii strain YM; [11]): 80.0% and 68.0%
- % parasitemia (mean ± SEM) (P. yoelii strain YM; D + 12, 10 mg/kg/day twice daily, 3 h after infection, D + 1 to D + 5): 14.4 ± 8.9%
- % parasitemia (mean ± SEM) (P. yoelii strain YM; D + 12, 15 mg/kg/day twice daily, 3 h after infection, D + 1 to D + 5): 0%
- mortality (no. of dead mice/total no. of tested mice) (P. yoelii strain YM; D + 12, i.p. 5 mg/kg/day twice daily to D + 3): (5/5)
- % parasitemia (mean ± SEM) (P. yoelii strain YM; D + 12, i.p. 10 mg/kg four times daily D + 4 to D + 7): 50.4 ± 15.6%
- % parasitemia (mean ± SEM) (P. yoelii strain YM; [12]): 55.7 ± 48.4%
- mortality (no. of dead mice/total no. of tested mice) (P. yoelii strain YM; [12]): 2/5
